Source: EP0218400A1, “Assay methods for chemotherapeutic agents” (DAMON BIOTECH, INC., priority 1985, dated 1987)

How the values were obtained:
[1] = test system: human colon adenocarcinoma (HT-29) cells; assay: In vivo growth of encapsulated HT-29 cells in C57BL/6 mice; conditions: for inhibition at 20 mg/kg: Mus musculus; for No. of cells per capsule / Total No. of tumor cells: 4 days
Experimental: (§1) In the experiments that follow, the drugs and other agents tested were administered to the host animal by injection at the various times called for in the protocol being tested. At various periods after treatment, the mice were killed by cervical dislocation. The peritoneal cavity of each mouse was washed with PBS or medium and floating microcapsules were aspirated using a large bore plastic Pasteur pipette. Microcapsules were transferred to 15 ml tubes and washed 3 to 4 times with PBS to remove host peritoneal cells. The washed microcapsules were aspirated into 1 ml serological pipettes, allowed to sediment, and the volume of packed microcapsules was determined. Microcapsules were then transferred to a glas dounce homogenizer (7 ml volume) and disrupted with 3 strokes of an A-tolerance plumger. Cells suspensions were filtered through nylon mesh to remove the disrupted membranes. The suspensions containing tumor cells were centrifuged and the pellet was resuspended in 0.25 to 0.5 ml of complete medium. After mixing equal volumes of cell suspension and trypan blue, viable cell counts were determined using a hemocytometer.
(§2) The number of tumor cells per 1 ml of packed microcapsules was determined as follows: a = ? where b = total number of tumor cells in the suspension, and c = total volume of microcapsules used for the preparation of this suspension.
(§3) By comparing the number of tumor cells in 1 ml of microcapsules derived from non-treated and drug-treated mice, the percent inhibition of tumor cell growth was calculated: [formula] where ac = number of tumor cells from the non-treated control microcapsules, and ae = number of tumor cells from the drug treated microcapsules.
A second human cancer cell line was also used to further analyze in vivo effects of different drugs on the growth of tumors. Encapsulated human colon adenocarcinoma (HT-29) cells were again transplanted into C57BL/6 mice and various drugs were administered after 3 days either by intravenous or by intraperitoneal injection. Animals were sacrificed after 4 days and number of cells per capsule were counted to calculate inhibition rates for the various treatment procedures. […] In fact, 5-FU is a preferred chemotherapeutic agent for patients with gastrointestinal malignancies.

[2] = test system: Human T cell lymphoma (MOLT-4) cells; assay: In vitro drug pretreatment of encapsulated cells, then growth in the peritoneal cavity of mice; format: in vivo; conditions: for No. of tumor cells per capsule: then 7 days i.p. in C57BL/6 mice
Experimental: The encapsulated tumors are preferably incubated at 37° C in medium for 1 to 2 hours. A 25 percent (v/v) suspension can then be prepared (preferably without bovine serum). The suspension can be inoculated in the peritoneal cavity of the host animal (i.e., with a 16 gauge needle).
as §1, §2, §3
Human T cell lymphoma (MOLT-4) cells were encapsulated according to the procedures described above and incubated in vitro in RPMI I640 medium supplemented with 10 percent fetal calf serum, glutamine and antibiotics for one hour of 37°C. During incubation they were exposed to various concentrations of 1,3-B (2-chloroethyl)-1-nitrosourea (BCNU), 5-fluorouracil (5-FU) and adriamycin. The microcapsules were then washed and implanted into the peritoneal cavity (i.p.) of C57BL/6 mice (Animal Production Area NCI-Frederick Cancer Research Facility) using #18-14 needles. After seven days the mice were sacrificed and their peritoneal cavities were washed with PBS and aspirated to collect the microcapsules in a Pasteur pipette. The microcapsules were washed several times from the host peritoneal cells. The microcapsules from the individual mice were counted by transferring them into wells of a 96 well microplate. Using an inverted microscope, the numbers of microcapsules in each well were counted. Each well was washed out and microcapsules were transferred into the glass homogenizer.
Microcapsules were then disrupted, and the suspension was filtered, centrifugated and reconstituted with PBS. The concentration and total number of cells were counted using a hemocytometer.

P388 Resistant Cells = assay: In vivo growth of encapsulated adriamycin-resistant P388 lymphoma cells in nude mice
Experimental: as §1, §2, §3
Since drug-resistance is one of the most important causes of failure in chemotherapy, it is crucial that a predictive assay be able to distinguish between effective and non-effective drugs for particular tumors. […] One day later the mice received by i.v. administration Adriamycin (6 mg/kg), Vinblastin (1 mg/kg) or Cyclophosphamide (100 mg/kg). Five days after administration some of the mice were sacrificed, the microcapsules were recovered and the numbers of tumor cells inside the capsules were determined. The remaining mice received a second administration and the microcapsules were recovered from the remaining mice 3 days afterwards. The results are shown in Table 7 and correlate well with the known characteristics of P388 cell line and its variant.

human Melanoma LOX cells = assay: In vivo susceptibility of encapsulated LOX melanoma cells in nude mice
Experimental: as §1, §2, §3
In this series of experiments, cells of a fourth human cancer type, Melanoma LOX cells, were used. LOX cells have recently been proposed as the model for experimental treatment at the NCI Development Therapeutics Program. Following i.p. inoculation of the suspension of LOX Melanoma cells into nude mice, various drugs were administered i.v. and survival of the treated mice was determined (Schoemaker et al., Proceeding American Association for Cancer Research, 26, 1302, 1985) (mice transplanted with the non-encapsulated tumor cells were considered tumor-free if they survived during 3 months of observation). In parallel experiments encapsulated LOX Melanoma cells were transferred into nude mice and drugs were inoculated i.v. 1, 5 and 9 days at the dose and schedule utilized by the Dr. Shoemaker's procedure.

[3] = test system: MOLT-4 human lymphoma cells; assay: In vivo sensitivity of encapsulated MOLT-4 cells in nude mice, NCI schedule; conditions: Adriamycin 6 mg/kg, 15 days after transplantation
Experimental: as §1, §2, §3
In the next experiment various drugs were administered in vivo according to schedules and doses typically used for screening antitumor effects of the drugs at the National Cancer Institute, Developmental Therapeutics program.
MOLT-4 human lymphoma cells were encapsulated and transplanted into peritoneum of nude mice. Doses of various drugs were applied i.v. at 1, 5 and 9 days after tumor cell transplantation.

[4] = test system: human lung carcinoma A549 cells; assay: In vivo susceptibility of encapsulated A549 cells; conditions: i.v. days 2, 5, 9; for No. of tumor cells per 1 ml of capsules / percent Inhibition: Adriamycin 6, BCNU 20, CY 100 mg/kg
Experimental: as §1, §2, §3
The sensitivity of human lung carcinoma A549 cells to the drugs was assessed 12 and 14 days after transplantation of encapsulated tumor cells. The treatments were applied i.v. 2, 5 and 9 days after microcapsule transplantation (Table 5).

[5] = i.p. 3 days after transplantation, 5-Fu 150 mg/kg, CY 250 mg/kg, Adriamycin 20 mg/kg
[6] = i.v. 20 mg/kg 3 days after transplantation

## COc1cccc2c1C(=O)c1c(O)c3c(c(O)c1C2=O)C[C@@](O)(C(=O)CO)C[C@@H]3O[C@H]1C[C@H](N)[C@H](O)[C@H](C)O1 [Adriamycin]
[1]; HT-29, ip
  inhibition at 20 mg/kg: 45%
[1]; HT-29, iv
  inhibition at 20 mg/kg: 50%
[1]; [5]
  No. of cells per capsule: 1.1 x 10^4
  Total No. of tumor cells: 5.8 x 10^5
[1]; [6]
  No. of cells per capsule: 1 x 10^4
  Total No. of tumor cells: 1.2 x 10^6
[2]; 2.5 µg/ml in vitro for one hour
  No. of tumor cells per capsule: 2 x 10^3
[2]; 10 µg/ml in vitro for one hour
  No. of tumor cells per capsule: 10
[2]; Mus musculus, MOLT-4, ip
  inhibition at 2.5 µg/mL: 60%
  inhibition at 10 µg/mL: 100%
P388 Resistant Cells; 5 + 3 days after treatment (3 days after second administration), Adriamycin 6, Vinblastin 1, Cyclophosphamide 100 mg/kg i.v.
  No. cells/ml: 32 x 10^6
P388 Resistant Cells; 5 days after treatment, i.v. one day after inoculation, Adriamycin 6, Vinblastin 1, Cyclophosphamide 100 mg/kg
  No. cells/ml: 18 x 10^6
P388 Resistant Cells; Adriamycin 6 mg/kg, Vinblastin 1 mg/kg i.v.
  inhibiting the growth of the drug-resistant variant (in words): Neither Adriamycin nor Vinblastin in the doses administered was effective
Human Melanoma LOX cells; i.v. days 1, 5, 9
  sensitivity of encapsulated LOX cells to the treatment (in words): most sensitive
Human Melanoma LOX cells; i.v. days 1, 5, 9, Adriamycin 6, BCNU 20, CY 100, 5-Fu 60 mg/kg
  No. of viable tumor cells per 1 ml. of capsules: 6 x 10^5
[3]; 5-FU 60 mg/kg i.v. days 1, 5, 9
  inhibition of tumor cell proliferation (in words): dramatic inhibition of tumor cell proliferation
[3]; Mus musculus, MOLT-4, iv, 360 h, i.v. days 1, 5, 9, Cyclophosphamide 100 mg/kg, 5-Fu 60 mg/kg, nude mice
  inhibition at 6 mg/kg: 95%
[3]; i.v. days 1, 5, 9, Cyclophosphamide 100 mg/kg, 5-Fu 60 mg/kg, nude mice
  No of viable tumor cells per 1 ml of capsules: 2.7 x 10^6
[4]; 12 days after transplantation
  No. of tumor cells per 1 ml of capsules: 9.0 x 10^5
  percent Inhibition: 85%
[4]; 14 days after transplantation
  No. of tumor cells per 1 ml of capsules: 13.5 x 10^5
  percent Inhibition: 84%
[4]
  reduction of the numbers of tumor cells (in words): more efficient in this respect than CY
